Measured values as given in ChEMBL document CHEMBL3351421, “Novel styryl-indoles as small molecule inhibitors of 25-hydroxyvitamin D-24-hydroxylase (CYP24A1): Synthesis and biological evaluation” (Eur J Med Chem, 2014).

Biological target: T1, 1,25-dihydroxyvitamin D(3) 24-hydroxylase, mitochondrial (Homo sapiens, UniProt Q07973)
T1 sequence (Q07973 whole entry): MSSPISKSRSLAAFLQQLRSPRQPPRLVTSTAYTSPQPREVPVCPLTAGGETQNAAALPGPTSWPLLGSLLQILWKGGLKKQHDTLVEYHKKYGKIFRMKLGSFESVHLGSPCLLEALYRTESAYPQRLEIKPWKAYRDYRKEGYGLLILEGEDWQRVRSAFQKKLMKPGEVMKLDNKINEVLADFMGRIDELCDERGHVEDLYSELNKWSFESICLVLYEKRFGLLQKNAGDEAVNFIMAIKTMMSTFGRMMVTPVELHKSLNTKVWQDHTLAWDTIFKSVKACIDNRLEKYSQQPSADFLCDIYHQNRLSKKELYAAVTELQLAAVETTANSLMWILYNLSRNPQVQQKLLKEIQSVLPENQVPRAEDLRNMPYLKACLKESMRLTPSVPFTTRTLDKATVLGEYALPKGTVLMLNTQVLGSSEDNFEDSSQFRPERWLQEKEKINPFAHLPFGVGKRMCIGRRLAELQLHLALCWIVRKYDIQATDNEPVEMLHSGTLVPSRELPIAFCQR
Experiment: Inhibition of N-terminally MBP-fused human CYP24A1 by cell-free assay

Row | Compound | IC50 [nM] | Ki [nM]
1 | COc1cc(/C=C/c2cccc3c2ccn3CCCOS(=O)(=O)c2ccc(C)cc2)cc(OC)c1 | 16900 | 1190
2 | O=S(OCCCn1ccc2c(/C=C/c3ccccc3)cccc21)c1ccccc1 (stereo unspecified) | 7600 | 540
3 | Cc1ccc(S(=O)(=O)NCCCCn2ccc3c(/C=C/c4ccccc4)cccc32)cc1 | 3300 | 230
4 | COc1cc(/C=C/c2cccc3c2ccn3CCCNS(=O)(=O)c2ccc(C)cc2)cc(OC)c1 | 10400 | 730
5 | Cc1ccc(S(=O)(=O)OCCCn2ccc3c(/C=C/c4ccccc4)cccc32)cc1 | 9000 | 640
6 | Cc1ccc(S(=O)(=O)NCCCn2ccc3c(/C=C/c4ccccc4)cccc32)cc1 | 4800 | 340
7 | COc1cc(/C=C/c2cccc3c2ccn3CCCCNS(=O)(=O)c2ccc(C)cc2)cc(OC)c1 | 10500 | 740

Stronger by IC50, values ahead:

Row | IC50 [nM] | Ki [nM] | Compound
8 | 520 | 37 | C(=C\c1ccc2c(ccn2CCCCn2ccnc2)c1)/c1ccccc1
9 | 520 | 37 | C(=C\c1ccc2c(ccn2CCCn2ccnc2)c1)/c1ccccc1
10 | 440 | 31 | COc1cc(/C=C/c2cccc3c2ccn3CCCn2ccnc2)cc(OC)c1
11 | 360 | 26 | C(=C\c1cccc2c1ccn2CCCn1ccnc1)/c1ccccc1
12 | 200 | 14 | C(=C\c1cccc2c1ccn2CCCCn1ccnc1)/c1ccccc1
13 | 190 | 14 | COc1cc(/C=C/c2cccc3c2ccn3CCCCn2ccnc2)cc(OC)c1
